In patent publication US20250215013A1, “SUBSTITUTED TRICYCLIC COMPOUNDS AS PARP INHIBITORS AND THE USE THEREOF” (IMPACT THERAPEUTICS (SHANGHAI), INC., priority 2022, published 2025):

How the values were obtained:
[1] = biological target: recombinant poly(ADP-ribose) polymerase 1 (PARP1) (Homo sapiens (Human), UniProt P09874)
[2] = biological target: recombinant poly(ADP-ribose) polymerase 2 (PARP2); test: PARP2 chemiluminescent assay; format: biochemical; conditions: inhibition of PARP2 enzyme activity, chemiluminescence
MDA-MB-436 cells = test: Growth inhibition assay against BRCA mutant human breast cancer MDA-MB-436 cell line (CCK-8); format: cell-based; conditions: Homo sapiens, MDA-MB-436, […], proliferation of MDA-MB-436 cells, 7 days

recombinant poly(ADP-ribose) polymerase 1 (PARP1), sequence (P09874 whole entry): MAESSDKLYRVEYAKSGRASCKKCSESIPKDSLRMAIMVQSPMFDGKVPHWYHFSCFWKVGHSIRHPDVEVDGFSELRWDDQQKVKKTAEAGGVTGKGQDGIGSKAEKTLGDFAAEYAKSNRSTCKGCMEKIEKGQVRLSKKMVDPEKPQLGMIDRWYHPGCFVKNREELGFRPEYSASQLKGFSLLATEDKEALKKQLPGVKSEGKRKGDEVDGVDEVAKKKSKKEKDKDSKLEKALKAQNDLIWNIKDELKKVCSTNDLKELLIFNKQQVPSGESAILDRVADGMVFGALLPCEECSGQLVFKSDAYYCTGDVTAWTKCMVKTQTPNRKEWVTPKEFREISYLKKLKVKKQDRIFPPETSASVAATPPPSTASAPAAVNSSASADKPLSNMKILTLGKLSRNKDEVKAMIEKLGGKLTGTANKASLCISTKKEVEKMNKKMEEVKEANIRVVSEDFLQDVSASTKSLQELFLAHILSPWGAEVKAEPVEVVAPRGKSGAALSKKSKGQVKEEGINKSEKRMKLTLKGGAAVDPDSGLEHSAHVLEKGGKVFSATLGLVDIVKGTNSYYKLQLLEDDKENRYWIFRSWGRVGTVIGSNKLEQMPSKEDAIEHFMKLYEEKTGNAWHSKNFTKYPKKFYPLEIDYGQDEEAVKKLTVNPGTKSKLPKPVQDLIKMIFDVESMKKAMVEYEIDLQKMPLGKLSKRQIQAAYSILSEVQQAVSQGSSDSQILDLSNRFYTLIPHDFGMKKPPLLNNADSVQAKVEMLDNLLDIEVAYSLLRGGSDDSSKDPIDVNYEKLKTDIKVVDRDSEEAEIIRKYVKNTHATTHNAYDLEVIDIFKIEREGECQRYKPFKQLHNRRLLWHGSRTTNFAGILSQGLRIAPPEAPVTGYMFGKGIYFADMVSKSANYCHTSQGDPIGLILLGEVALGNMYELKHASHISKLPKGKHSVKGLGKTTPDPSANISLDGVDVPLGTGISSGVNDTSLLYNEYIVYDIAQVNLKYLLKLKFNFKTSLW

Row | SMILES | IC50 [1] | IC50 [2] | IC50 (MDA-MB-436 cells)
1 | CNC(=O)c1ccc(N2CCN(Cc3ccc4c(c3)[nH]c(=O)c3nc[nH]c34)CC2)c(C)n1 [Example 25, 7-((4-(2-methyl-6-(methylcarbamoyl)pyridin-3-yl)piperazin-1-yl)methyl)-1,5-dihydro-4H-imidazo[4,5-c]quinolin-4-one] | 0.00339 µM | 2490 nM | 0.0618 µM
2 | CNC(=O)c1ccc(N2CCN(Cc3ccc4c(c3)[nH]c(=O)c3ncn(C)c34)CC2)c(C)n1 [Example 26, 7-((4-(2-methyl-6-(methylcarbamoyl)pyridin-3-yl)piperazin-1-yl)methyl)-1-methyl-1,5-dihydro-4H-imidazo[4,5-c]quinolin-4-one] | 0.00443 µM | 2420 nM | > 0.1 µM
3 | CNC(=O)c1ccc(N2CCN(Cc3ccc4c(c3)[nH]c(=O)c3c4ncn3C)CC2)c(C)n1 [Example 28, 7-((4-(2-methyl-6-(methylcarbamoyl)pyridin-3-yl)piperazin-1-yl)methyl)-3-methyl-3,5-dihydro-4H-imidazo[4,5-c]quinolin-4-one] | 0.00242 µM | 2060 nM | 0.0194 µM
4 | CNC(=O)c1ccc(N2CCN(Cc3ccc4c(c3)[nH]c(=O)c3oncc34)CC2)c(C)n1 [Example 30, 7-((4-(2-methyl-6-(methylcarbamoyl)pyridin-3-yl)piperazin-1-yl)methyl)isoxazolo[5,4-c]quinolin-4(5H)-one] | 0.138 µM | > 10000 nM | > 0.1 µM
5 | CNC(=O)c1ccc(N2CCN(Cc3ccc4c(c3)[nH]c(=O)c3c[nH]cc34)CC2)c(C)n1 [Example 34, 7-((4-(2-methyl-6-(methylcarbamoyl)pyridin-3-yl)piperazin-1-yl)methyl)-2,5-dihydro-4H-pyrrolo[3,4-c]quinolin-4-one] | 0.00252 µM | 709 nM | 0.00506 µM
6 | CNC(=O)c1ccc(N2CCN(Cc3ccc4c(c3)[nH]c(=O)c3cn(C)cc34)CC2)c(C)n1 [Example 35, 7-((4-(2-methyl-6-(methylcarbamoyl)pyridin-3-yl)piperazin-1-yl)methyl)-2-methyl-2,5-dihydro-4H-pyrrolo[3,4-c]quinolin-4-one] | 0.00292 µM | 584 nM | 0.00824 µM
7 | CNC(=O)c1ccc(N2CCN(Cc3ccc4c([nH]c(=O)c5cn[nH]c54)c3F)CC2)c(C)n1 [Example 45, 7-((4-(2-methyl-6-(methylcarbamoyl)pyridin-3-yl)piperazin-1-yl)methyl)-6-fluoro-1,5-dihydro-4H-pyrazolo[4,3-c]quinolin-4-one] | 0.00064 µM | 278 nM | 0.00902 µM
8 | CNC(=O)c1ccc(N2CCN(Cc3ccc4c(c3)[nH]c(=O)c3c(C)noc34)CC2)c(C)n1 [Example 47, 7-((4-(2-methyl-6-(methylcarbamoyl)pyridin-3-yl)piperazin-1-yl)methyl)-3-methylisoxazolo[4,5-c]quinolin-4(5H)-one] | 0.00086 µM | 504 nM | 0.0122 µM
9 | CNC(=O)c1ccc(N2CCN(Cc3ccc4c(c3)[nH]c(=O)c3c(F)c(C)nn34)CC2)c(C)n1 [Example 51, 7-((4-(2-methyl-6-(methylcarbamoyl)pyridin-3-yl)piperazin-1-yl)methyl)-3-fluoro-2-methylpyrazolo[1,5-a]quinoxalin-4(5H)-one] | 0.0009 µM | 30.6 nM | 0.00845 µM
10 | CNC(=O)c1ccc(N2CCN(Cc3cc(F)c4c(c3)[nH]c(=O)c3cncn34)CC2)c(F)n1 [Example 53, 7-((4-(2-fluoro-6-(methylcarbamoyl)pyridin-3-yl)piperazin-1-yl)methyl)-9-fluoroimidazo[1,5-a]quinoxalin-4(5H)-one] | 0.00025 µM | 469 nM | 0.00201 µM
11 | CNC(=O)c1ccc(N2CCN(Cc3cc(F)c4c(c3)[nH]c(=O)c3cncn34)CC2)c(Cl)n1 [Example 54, 7-((4-(2-chloro-6-(methylcarbamoyl)pyridin-3-yl)piperazin-1-yl)methyl)-9-fluoroimidazo[1,5-a]quinoxalin-4(5H)-one] | 0.00052 µM | 648 nM | 0.00585 µM
12 | CNC(=O)c1ccc(N2CCN(Cc3ccc4c([nH]c(=O)c5cncn54)c3F)CC2)c(F)n1 [Example 55, 7-((4-(2-fluoro-6-(methylcarbamoyl)pyridin-3-yl)piperazin-1-yl)methyl)-6-fluoroimidazo[1,5-a]quinoxalin-4(5H)-one] | 0.00047 µM | 776 nM | 0.014 µM
13 | CNC(=O)c1ccc(N2CCN(Cc3ccc4c([nH]c(=O)c5cncn54)c3F)CC2)c(Cl)n1 [Example 56, 7-((4-(2-chloro-6-(methylcarbamoyl)pyridin-3-yl)piperazin-1-yl)methyl)-6-fluoroimidazo[1,5-a]quinoxalin-4(5H)-one] | 0.00068 µM | 1570 nM | 0.00408 µM
14 | CNC(=O)c1ccc(N2CCN(Cc3ccc4c([nH]c(=O)n5ccnc45)c3F)CC2)c(F)n1 [Example 61, 8-((4-(2-fluoro-6-(methylcarbamoyl)pyridin-3-yl)piperazin-1-yl)methyl)-7-fluoroimidazo[1,2-c]quinazolin-5(6H)-one] | 0.00223 µM | 7260 nM | 0.0174 µM
15 | CCNC(=O)c1ccc(N2CCN(Cc3ccc4c([nH]c(=O)n5ccnc45)c3F)CC2)c(F)n1 [Example 62, 8-((4-(2-fluoro-6-(ethylcarbamoyl)pyridin-3-yl)piperazin-1-yl)methyl)-7-fluoroimidazo[1,2-c]quinazolin-5(6H)-one] | 0.00349 µM | > 10000 nM | 0.0467 µM
16 | CCNC(=O)c1ccc(N2CCN(Cc3ccc4c([nH]c(=O)n5ccnc45)c3F)CC2)c(C)n1 [Example 63, 8-((4-(2-methyl-6-(ethylcarbamoyl)pyridin-3-yl)piperazin-1-yl)methyl)-7-fluoroimidazo[1,2-c]quinazolin-5(6H)-one] | 0.00386 µM | > 10000 nM | 0.0537 µM
17 | O=C(NC1CC1)c1ccc(N2CCN(Cc3ccc4c([nH]c(=O)n5ccnc45)c3F)CC2)c(F)n1 [Example 64, 8-((4-(2-fluoro-6-(cyclopropylcarbamoyl)pyridin-3-yl)piperazin-1-yl)methyl)-7-fluoroimidazo[1,2-c]quinazolin-5(6H)-one] | 0.00273 µM | 5450 nM | 0.0526 µM
18 | Cc1nc(C(=O)NC2CC2)ccc1N1CCN(Cc2ccc3c([nH]c(=O)n4ccnc34)c2F)CC1 [Example 65, 8-((4-(2-methyl-6-(cyclopropylcarbamoyl)pyridin-3-yl)piperazin-1-yl)methyl)-7-fluoroimidazo[1,2-c]quinazolin-5(6H)-one] | 0.00453 µM | > 10000 nM | 0.0538 µM
19 | CNC(=O)c1ccc(N2CCN(Cc3ccc4c(c3)[nH]c(=O)c3nn(C)cc34)CC2)c(C)n1 [Example 69, 7-((4-(2-methyl-6-(methylcarbamoyl)pyridin-3-yl)piperazin-1-yl)methyl)-2-methyl-2,5-dihydro-4H-pyrazolo[3,4-c]quinolin-4-one] | 0.00077 µM | 5780 nM | 0.00466 µM
20 | CNC(=O)c1ccc(N2CCN(Cc3ccc4c(c3)[nH]c(=O)c3c4cnn3C)CC2)c(C)n1 [Example 71, 7-((4-(2-methyl-6-(methylcarbamoyl)pyridin-3-yl)piperazin-1-yl)methyl)-3-methyl-3,5-dihydro-4H-pyrazolo[3,4-c]quinolin-4-one] | 0.0033 µM | 636 nM | 0.011 µM
